Results: a melting point compilation (Tetko et al.; mined from patent text by program, amines drawn as free bases though some values may be those of a salt)

melting point [°C]	SMILES
137	COc1cc(OCC(=O)O)c(C)cc1SCc1ccc(-c2cccc(OC(F)(F)F)c2)cc1
91 to 93	CCOC(=O)C(C)c1ccc2c(c1)C(=O)c1ccccc1CS2 (centres undefined)
90 to 92	CCC(C1OC(=O)c2ccccc21)[N+](=O)[O-] (centres undefined)
112 to 116	Cc1cc2ccncc2c(=O)c2ccccc12
59 to 60	COC(=O)c1cc(C2CO2)cc([N+](=O)[O-])c1 (centres undefined)
144	CC(=O)COc1cc2c(c(Cl)c1Cl)C(=O)C(C)(c1ccccc1)C2 (centres undefined)
122 to 124	CCN1CCCC1=NC(=O)Nc1cccc(Cl)c1
176 to 178	CNC(=O)c1ccc([C@@H]2C[C@H]3C=C(c4c[nH]c(-c5ccc(F)c(Cl)c5)c4-c4ccncc4)CCN3C2)cc1
263 to 264	O=c1nc(Nc2ccc(I)cc2)sc2ncccc12
138 to 139	Cc1noc(NC(=O)NCCC2CCN(Cc3ccccc3)CC2)n1
156 to 158	COc1ccc(C(=O)Nc2ccccc2)cc1NC(=S)Nc1ccc(C)cc1
167 to 168	Cc1cccc(COc2cccc(OCc3ccc4ccccc4n3)c2)c1C(=O)O
56	CCOc1c(C)cc([N+](=O)[O-])cc1C
115 to 117	COc1ncc(OC)c(NN)n1
159 to 160	Oc1ccc2c(c1)OCC(N1CCC(O)(c3ccc(F)cc3)CC1)C2O (centres undefined)
115 to 117	O=C(NC(NCCc1ccccc1)C(Cl)(Cl)Cl)c1ccncc1 (centres undefined)
279 to 280	Fc1ccc(-c2nc3ccc(N4CCC5(CCCNC5)CC4)nn3c2-c2ccnc3[nH]ccc23)cc1
101 to 103	C#CC[C@H](c1nc2cc(Cl)ccc2c(=O)n1Nc1ccccc1)N(CCCN)C(=O)c1cccc(Cl)c1F
44 to 46	O=C(NCCc1c[nH]c2ccccc12)Oc1ccccc1
92 to 93	COCC(=O)Nc1cccc(C2(c3ccncc3)N=C(N)N(C)C2=O)c1 (centres undefined)
92 to 93	O=C(OCc1ccccc1)C(O)N1C(=O)C2CC=CCC21 (centres undefined)
235 to 237	CCOC(=O)c1cnn2c1c(N)nc1ccccc12
108 to 110	COc1ccc(CCNC(=O)COCCC(=O)NCCc2ccccc2)cc1OC
135 to 137	Cn1c(=O)c2ccccc2n(Cc2ccc(F)cc2)c1=N

melting point [°C]	SMILES
104 to 105	CCC1(CCCCCl)C(=O)Nc2ccccc21 (centres undefined)
125 to 126	COc1ccc(C(=O)Nc2ccccc2C(C)c2ccccn2)cc1 (centres undefined)
135 to 140	CC(=O)SCCc1ncn(C(c2ccccc2)(c2ccccc2)c2ccccc2)n1
234 to 236	CN1CCc2nc(C(=O)N[C@@H]3C[C@@H](C(=O)O)CC[C@H]3NC(=O)c3cc4cc(Cl)ccc4[nH]3)sc2C1
151 to 154	CNC(=O)c1ccc(-c2ccc3oc(C4CCN(C(=O)OC(C)C)CC4)nc3c2)cc1C
209 to 211	CCCCn1c(=O)n(CCC)c(=O)c2c(N)n[nH]c21
93 to 94	Cc1oc2c(C=Cc3c(Cl)cccc3Cl)cccc2c1C
229 to 233	CC(=O)Oc1cccc2sc(-c3ccc(C(=O)O)cc3)nc12
75 to 87	CNC(=O)C1(Nc2nc(Nc3cc4c(cc3OC)CCN(CC(=O)N(C)C)CC4)ncc2Cl)CCCC1
130 to 131	CC1(CCl)C(C(=O)OCC(Cl)(Cl)Cl)N2C(=O)C(NC(=O)Cc3ccccc3)C2S1=O (centres undefined)
262 to 263	CCn1nc(-c2ccccc2)c(C(C)=O)c(Nc2ccc(O)c3ncccc23)c1=O
150	CSc1c(C(=O)O)ccc(Cl)c1F
73 to 74	CC(=O)N(c1cccc(C(F)(F)F)c1)c1cccc(C(F)(F)F)c1
124 to 131	COc1cc(C(=O)NS(=O)(=O)c2ccccc2C)ccc1Cc1cn(C)c2ccc(CCNC(=O)N(C)C)cc12
151 to 152	Cc1cccc(-c2nc(-c3cccc(C)c3)nc(-c3cccc(C)c3)n2)c1
80	CN(C(=O)OCc1ccccc1)[C@H]1CNc2ccccc2C1
218 to 220	O=S(=O)(NCCN1CCOCC1)c1ccc(-c2n[nH]c3c2Cc2ccccc2-3)cc1
168 to 179	CC(C)[C@]1(CCc2ccc(O)cc2)CC(O)=C(Sc2cc(C(C)(C)C)cc3sc(N)nc23)C(=O)O1
162	COc1cc(C)nc(NC(=O)NS(=O)(=O)c2ccccc2OC(F)(F)F)n1
167 to 168	NCCCCCC(=O)NC(CCCCN)C(=O)N(NC(=O)OCc1ccccc1)C(=O)OCc1ccccc1 (centres undefined)
112 to 115	CSc1sccc1C#N
240 to 242	O=Cc1c2ccc(F)cc2c(C=O)c2ccc(F)cc12
209 to 210	COC(=O)c1c(C)[nH]c(C)c1C1=CC(=O)c2ccccc2C1=O
268 to 269	O=C(O)c1ccc(-c2coc(-c3cccc(C(F)(F)F)c3)n2)cc1

melting point [°C]	SMILES
160 to 162	Cc1cccc([N+](=O)[O-])c1CNc1cccn2c(C)c(C)nc12
249 to 251	COC1CCN(c2c(F)cc3c(=O)c(C(=O)O)cn4c3c2CCC4C)CC1 (centres undefined)
78 to 85	COC(=O)c1ccc(CNC(=O)C2Cc3ccccc3N2S(=O)(=O)c2ccc(-c3cccc(C(F)(F)F)c3)cc2)c(OC)c1 (centres undefined)
131 to 132	CC(C)c1cccc(COCCCn2ccnc2)c1NC(=O)CC1c2ccccc2Oc2ccccc21
154 to 155	Cc1c(C)c2c(c(C)c1O)CCC(C)(C(=S)N1CCN(c3ccc(Cl)cc3)CC1)O2 (centres undefined)
115 to 116	C#CCNC(=NCCSCc1ncccc1Cl)NC#N
159 to 161	O=C(c1cccs1)c1cnn2c(-c3cccc(NC(=O)C4CCNCC4)c3)ccnc12
85 to 86	C=C(C)CSc1nc2c(cc1C#N)C(=O)CCC2
142 to 152	O=C(NCCN1CCCC1)c1ccc(=O)n(Cc2ccc(-c3ccccc3)cc2)c1
161 to 162	Cc1csc2ncc(CO)n12
105 to 106	C[C@@H](n1cncn1)[C@](O)(Cn1cncn1)c1ccccc1F
52 to 53.5	COCc1nc(-c2ccc(Br)c(C)c2)no1
189 to 191	CCOC(=O)c1nn(-c2ccc(Cl)cc2)c(=O)c2c(N)scc12
140 to 145	O=C(O)c1cc(C(F)(F)F)ccc1Sc1ccccc1
173 to 175	CSc1nc(-c2ccncc2)n(-c2ccc(C(C)C)cc2)c(=O)c1C#N
231 to 232	C[C@@H](n1cnc2cc(-c3ccc(C#N)cc3)sc2c1=O)[C@](O)(Cn1cncn1)c1ccc(F)cc1F
133 to 134	COc1cc(C(=O)N2CCN(C(=O)C3=Cc4ccc(OC)c(OC)c4CCC3)CC2)cc(OC)c1OC
215 to 216	Brc1cccc2ncn3ccnc3c12
156 to 158	O=C(c1ccc([N+](=O)[O-])c(OCC2CO2)c1)N1CCOCC1 (centres undefined)
161 to 164	c1ccc(COc2cccc(CSc3nc4cnccc4[nH]3)c2)cc1
121 to 122	COC(=O)C(C)(C)C(=O)Oc1ccc(C(=O)c2ccccc2)cc1
90 to 93	Cc1cc(C#C[Si](C)(C)C)ccc1-n1c(C(F)(F)F)nn(C)c1=S
76 to 77	CC(=O)CCc1ccc(-c2ccccc2)cc1
177 to 178	CN(NC(=O)c1c(Cl)cccc1Cl)S(=O)(=O)c1ccccc1

melting point [°C]	SMILES
152 to 153	COc1cccc(Oc2ccc(CCNc3ncnc4nccnc34)cc2)n1
190	COc1cc2c(cc1Nc1ncc(Cl)c(N[C@H]3[C@@H](C(N)=O)[C@@H]4C=C[C@H]3C4)n1)CCN(CC(=O)N1CCN(C)CC1)CC2
185 to 186	CC(c1ccc(F)cc1)n1nc(-c2ccc(F)cc2)c(-c2ccc(S(C)(=O)=O)cc2)cc1=O (centres undefined)
135 to 145	CC(=O)C(C)OC(=O)CC[C@H]1NC(=O)[C@@H]1N1C(=O)c2ccccc2C1=O (some centres undefined)
242 to 245	Cc1nnc2ccc(-c3cccc(NC(=O)C4CCC4)c3)nn12
211 to 215	CCCOc1ccc(S(C)(=O)=O)cc1-c1nc2c(CC)nn(C[C@@H]3CCCN3C)c2c(=O)[nH]1
148 to 150	CC(C)CSc1cc(C(=O)O)cc(N)c1Oc1ccccc1
230 to 235	Cn1cnnc1COc1nn2c(-c3ccccc3)nnc2cc1-c1ccccc1
189	O=C1OC(CO)CN1c1ccc(O)cc1 (centres undefined)
155 to 156	Cc1cnn(-c2ccc(C(=O)N3Cc4cccn4Cc4ccccc43)c(Cl)n2)c1
96 to 98	O=C(Cl)c1ccc(C#Cc2ccccc2F)o1
88 to 90	CC(=O)CSc1nc2ccccc2cc1-c1ccccc1
141 to 143	COc1ccc(-c2nc(CCOc3ccc(CC4OC(=O)NC4=O)cc3)c(C)o2)cc1 (centres undefined)
138 to 140	Nc1ncc(Oc2ccc(Cl)cc2)c(N2CCOCC2)n1
187 to 188	Clc1ccc2c(Nc3ccc(N4CCOCC4)c(CN4CCCC4)c3)ccnc2c1
93 to 94	CC1(C)CCc2ccc(Oc3ccc(N)cn3)cc2O1
81.5 to 83.6	CC(=O)N1CCC(C(=O)N(CCCN2CC3CN(C(=O)c4c(C)ccnc4C)CC3C2)c2ccc(C)c(Cl)c2)CC1 (centres undefined)
195 to 196	N#Cc1cccc(NC(=O)c2ccc(-n3nc(C(F)(F)F)cc3C(F)(F)F)cc2)c1
214 to 217	O=C(O)c1cc(-n2c(-c3ccc(O)cc3)cc3c2CCCC3)ccc1O
148 to 149	NNC1=NOCc2ccc(Cl)cc21
78 to 79	CN(C)NC(=O)N1CCC(Br)C1=O (centres undefined)
105 to 106	O=C(c1ccc(OC2CCOCC2)cc1)c1ccc([N+](=O)[O-])cc1
80 to 83	Oc1ccc(Nc2nc(NCc3ccco3)nc(Oc3ccc(O)cc3)n2)cc1
210	Cc1cn(C)cc1-c1cc2nccnc2[nH]1

SMILES	melting point [°C]
CC[C@H]1[C@H](O)CC(=O)N1c1ccc(C#N)c(OC)c1	138 to 141
CC(=O)C1(c2ccccc2)CCN(C(=O)OC(C)(C)C)CC1	91 to 92
Cc1ccc(CN2C(=O)C(C)Oc3c(C(=O)NC4CN5CCC4CC5)cc(Cl)cc32)cc1 (centres undefined)	156
